Read-outs that look alike come from different tables or passages of the source. One block for each compound: values may come before it.
What was measured:
Adenosine A1 = target: T1, Adenosine A1 (Homo sapiens, UniProt P30542); test: CEREP binding profile: A1
T1 construct: CEREP
Excerpt: (§1) The CEREP High-throughput profile consists of a broad collection of 80 transmembrane and soluble receptors, ion channels and G-Protein coupled receptors.

Adenosine A3 = target: T2, Adenosine A3 (Homo sapiens, UniProt P0DMS8); test: CEREP binding profile: A3
T2 construct: CEREP
Excerpt: as §1

Adrenergic alpha1 = test: CEREP binding profile: alpha1; details: 10 μM
Excerpt: as §1

Adrenergic beta2 = target: T3, Adrenergic beta2 (Homo sapiens, UniProt P07550); test: CEREP binding profile: beta2
T3 construct: CEREP
Excerpt: as §1

Angiotensin-II AT2 = target: T4, Angiotensin-II AT2 (Homo sapiens, UniProt P50052); test: CEREP binding profile: AT2
T4 construct: CEREP
Excerpt: as §1

Bombesin BB = test: CEREP binding profile: BB; details: 10 μM
Excerpt: as §1

Cannabinoid CB1 = target: T5, Cannabinoid CB1 (Homo sapiens, UniProt P21554); test: CEREP binding profile: CB1
T5 construct: CEREP
Excerpt: as §1

[1] = target: T6, Cholecystokinin CCK1 (CCKA) (Homo sapiens, UniProt P32238); test: CEREP binding profile: CCK1
T6 construct: CEREP
Excerpt: as §1

Dopamine D1 = target: T7, Dopamine D1 (Homo sapiens, UniProt P21728); test: CEREP binding profile: D1
T7 construct: CEREP
Excerpt: as §1

Dopamine D4.4 = target: T8, Dopamine D4.4 (Homo sapiens, UniProt P21917); test: CEREP binding profile: D4.4
T8 construct: CEREP
Excerpt: as §1

Endothelin ETA = target: T9, Endothelin ETA (Homo sapiens, UniProt P25101); test: CEREP binding profile: ETA
T9 construct: CEREP
Excerpt: as §1

Endothelin ETB = target: T10, Endothelin ETB (Homo sapiens, UniProt P24530); test: CEREP binding profile: ETB
T10 construct: CEREP
Excerpt: as §1

Melanocortin MC4 = Melanocortin MC4 (Homo sapiens, UniProt P32245); test: CEREP binding profile: MC4
Excerpt: as §1

Muscarinic M1 = Muscarinic M1 (Homo sapiens, UniProt P11229); test: CEREP binding profile: M1
Excerpt: as §1

Muscarinic M2 = Muscarinic M2 (Homo sapiens, UniProt P08172); test: CEREP binding profile: M2
Excerpt: as §1

Muscarinic M3 = Muscarinic M3 (Homo sapiens, UniProt P20309); test: CEREP binding profile: M3
Excerpt: as §1

Muscarinic M4 = Muscarinic M4 (Homo sapiens, UniProt P08173); test: CEREP binding profile: M4
Excerpt: as §1

Muscarinic M5 = Muscarinic M5 (Homo sapiens, UniProt P08912); test: CEREP binding profile: M5
Excerpt: as §1

Neurokinin NK3 = Neurokinin NK3 (Homo sapiens, UniProt P29371); test: CEREP binding profile: NK3
Excerpt: as §1

Neuropetide Y N1 = Neuropetide Y N1 (Homo sapiens, UniProt P25929); test: CEREP binding profile: N1
Excerpt: as §1

Neurotensin NTS1 (NT1) = Neurotensin NTS1 (NT1) (Homo sapiens, UniProt P30989); test: CEREP binding profile: NTS1
Excerpt: as §1

[2] = target: Opioid and opioid-like kappa (KOP) (Rattus norvegicus, UniProt P34975); test: CEREP binding profile: kappa; details: 10 μM
Excerpt: as §1

[3] = target: Opioid and opioid-like mu (MOP) (Homo sapiens, UniProt P35372); test: CEREP binding profile: mu; details: 10 μM
Excerpt: as §1

[4] = target: Opioid and opioid-like NOP (ORL1) (Homo sapiens, UniProt P41146); test: CEREP binding profile: NOP; details: 10 μM
Excerpt: as §1

Prostanoid EP2 = Prostanoid EP2 (Homo sapiens, UniProt P43116); test: CEREP binding profile: EP2
Excerpt: as §1

Purinergic P2Y = test: CEREP binding profile: P2Y; details: 10 μM
Excerpt: as §1

Somatostatin sst = test: CEREP binding profile: sst; details: 10 μM
Excerpt: as §1

Vasopressin V1a = target: T11, Vasopressin V1a (Homo sapiens, UniProt P37288); test: CEREP binding profile: V1a
T11 construct: CEREP (contract panel)
Excerpt: as §1

Serotonin 5-HT1A = target: T12, Serotonin 5-HT1A (Homo sapiens, UniProt P08908); test: CEREP binding profile: 5-HT1A
T12 construct: CEREP (contract panel)
Excerpt: as §1

Serotonin 5-HT1B = target: T13, Serotonin 5-HT1B (Rattus norvegicus, UniProt P28564); test: CEREP binding profile: 5-HT1B
T13 construct: CEREP (contract panel)
Excerpt: as §1

Serotonin 5-HT2B = target: T14, Serotonin 5-HT2B (Homo sapiens, UniProt P41595); test: CEREP binding profile: 5-HT2B
T14 construct: CEREP (contract panel)
Excerpt: as §1

Serotonin 5-HT2C = target: T15, Serotonin 5-HT2C (Homo sapiens, UniProt P28335); test: CEREP binding profile: 5-HT2C
T15 construct: CEREP (contract panel)
Excerpt: as §1

Serotonin 5-HT5a = target: T16, Serotonin 5-HT5a (Homo sapiens, UniProt P47898); test: CEREP binding profile: 5-HT5a
T16 construct: CEREP (contract panel)
Excerpt: as §1

Serotonin 5-HT7 = target: T17, Serotonin 5-HT7 (Homo sapiens, UniProt P34969); test: CEREP binding profile: 5-HT7
T17 construct: CEREP (contract panel)
Excerpt: as §1

Transporters Dopamine = target: T18, Transporters Dopamine (Homo sapiens, UniProt Q01959); test: CEREP binding profile: dopamine transporter
T18 construct: CEREP (contract panel)
Excerpt: as §1

[5] = target: T19, Transporters Norepinephrine (Homo sapiens, UniProt P23975); test: CEREP binding profile: norepinephrine transporter
T19 construct: CEREP (contract panel)
Excerpt: as §1

[6] = target: T20, Benzodiazepine BZD (periph) (Rattus norvegicus, UniProt P16257); test: CEREP binding profile: BZD (periph)
T20 construct: CEREP (contract panel)
Excerpt: as §1

Cytokines TNF-alpha = test: CEREP binding profile: TNF-alpha; details: 10 μM
Excerpt: as §1

GABA BZD (central) = test: CEREP binding profile: BZD (central); details: 10 μM
Excerpt: as §1

Glutamate PCP = test: CEREP binding profile: PCP; details: 10 μM
Excerpt: as §1

Sigma sigma = test: CEREP binding profile: sigma; details: 10 μM
Excerpt: as §1

[7] = target: T21, Non-steroid nuclear receptors PPAR gamma (Homo sapiens, UniProt P37231); test: CEREP binding profile: PPAR gamma
T21 construct: CEREP
Excerpt: as §1

Sequence of Muscarinic M4 (P08173 whole entry): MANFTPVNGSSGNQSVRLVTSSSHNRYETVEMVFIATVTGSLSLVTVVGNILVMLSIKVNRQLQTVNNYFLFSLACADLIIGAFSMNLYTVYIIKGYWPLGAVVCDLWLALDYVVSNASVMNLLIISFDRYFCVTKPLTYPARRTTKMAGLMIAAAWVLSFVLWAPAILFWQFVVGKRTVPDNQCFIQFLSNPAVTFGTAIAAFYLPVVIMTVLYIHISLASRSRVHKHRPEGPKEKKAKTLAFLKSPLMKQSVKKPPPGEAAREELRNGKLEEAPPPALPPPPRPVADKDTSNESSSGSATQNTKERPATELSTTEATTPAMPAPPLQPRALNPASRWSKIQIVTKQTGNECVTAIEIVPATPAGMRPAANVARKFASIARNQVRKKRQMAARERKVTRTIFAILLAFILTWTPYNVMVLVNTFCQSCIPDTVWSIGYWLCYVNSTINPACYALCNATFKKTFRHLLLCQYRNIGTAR
T14 sequence (P41595 whole entry): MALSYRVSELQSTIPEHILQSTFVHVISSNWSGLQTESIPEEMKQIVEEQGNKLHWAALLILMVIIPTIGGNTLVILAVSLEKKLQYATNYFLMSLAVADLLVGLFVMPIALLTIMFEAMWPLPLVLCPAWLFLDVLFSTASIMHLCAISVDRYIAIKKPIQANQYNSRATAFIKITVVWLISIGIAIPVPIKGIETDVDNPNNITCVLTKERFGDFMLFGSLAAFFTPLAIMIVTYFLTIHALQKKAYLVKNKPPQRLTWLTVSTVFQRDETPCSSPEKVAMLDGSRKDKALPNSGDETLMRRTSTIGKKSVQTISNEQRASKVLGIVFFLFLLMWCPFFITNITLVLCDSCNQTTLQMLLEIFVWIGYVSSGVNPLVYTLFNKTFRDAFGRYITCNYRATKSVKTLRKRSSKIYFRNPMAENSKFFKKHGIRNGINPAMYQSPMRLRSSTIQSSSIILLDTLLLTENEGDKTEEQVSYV
T12 sequence (P08908 whole entry): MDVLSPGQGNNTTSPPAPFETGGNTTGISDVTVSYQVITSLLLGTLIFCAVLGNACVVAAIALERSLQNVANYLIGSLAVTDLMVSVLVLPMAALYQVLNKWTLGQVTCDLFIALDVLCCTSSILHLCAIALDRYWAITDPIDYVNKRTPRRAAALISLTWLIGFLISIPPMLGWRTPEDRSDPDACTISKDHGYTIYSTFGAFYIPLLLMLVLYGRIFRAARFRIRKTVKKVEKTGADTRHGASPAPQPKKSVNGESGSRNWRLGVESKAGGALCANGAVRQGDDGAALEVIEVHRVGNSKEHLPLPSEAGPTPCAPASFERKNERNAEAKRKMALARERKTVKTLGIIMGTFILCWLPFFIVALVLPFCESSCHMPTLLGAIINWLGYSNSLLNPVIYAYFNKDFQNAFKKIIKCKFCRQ
Sequence of Muscarinic M1 (P11229 whole entry): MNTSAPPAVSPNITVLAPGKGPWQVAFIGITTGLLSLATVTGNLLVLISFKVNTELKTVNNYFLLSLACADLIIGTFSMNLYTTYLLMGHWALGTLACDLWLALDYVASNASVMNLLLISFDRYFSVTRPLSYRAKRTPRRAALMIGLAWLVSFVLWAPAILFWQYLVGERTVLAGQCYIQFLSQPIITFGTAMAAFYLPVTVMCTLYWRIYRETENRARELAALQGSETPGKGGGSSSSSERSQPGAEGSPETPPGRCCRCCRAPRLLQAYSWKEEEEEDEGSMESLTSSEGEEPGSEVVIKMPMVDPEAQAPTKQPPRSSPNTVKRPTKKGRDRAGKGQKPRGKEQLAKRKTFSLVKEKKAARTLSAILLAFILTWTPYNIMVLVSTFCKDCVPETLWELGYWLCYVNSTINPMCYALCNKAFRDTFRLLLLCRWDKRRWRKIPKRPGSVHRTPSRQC
Sequence of Melanocortin MC4 (P32245 whole entry): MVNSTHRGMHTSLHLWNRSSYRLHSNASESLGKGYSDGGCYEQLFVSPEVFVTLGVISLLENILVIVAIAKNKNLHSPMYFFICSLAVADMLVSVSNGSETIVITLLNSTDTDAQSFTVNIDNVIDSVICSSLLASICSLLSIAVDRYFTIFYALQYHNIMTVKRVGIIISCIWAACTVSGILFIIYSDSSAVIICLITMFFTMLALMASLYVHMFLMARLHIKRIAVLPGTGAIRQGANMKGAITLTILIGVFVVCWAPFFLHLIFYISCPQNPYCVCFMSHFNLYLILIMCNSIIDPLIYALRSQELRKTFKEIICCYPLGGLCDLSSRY
Sequence of Opioid and opioid-like kappa (KOP) (P34975 whole entry): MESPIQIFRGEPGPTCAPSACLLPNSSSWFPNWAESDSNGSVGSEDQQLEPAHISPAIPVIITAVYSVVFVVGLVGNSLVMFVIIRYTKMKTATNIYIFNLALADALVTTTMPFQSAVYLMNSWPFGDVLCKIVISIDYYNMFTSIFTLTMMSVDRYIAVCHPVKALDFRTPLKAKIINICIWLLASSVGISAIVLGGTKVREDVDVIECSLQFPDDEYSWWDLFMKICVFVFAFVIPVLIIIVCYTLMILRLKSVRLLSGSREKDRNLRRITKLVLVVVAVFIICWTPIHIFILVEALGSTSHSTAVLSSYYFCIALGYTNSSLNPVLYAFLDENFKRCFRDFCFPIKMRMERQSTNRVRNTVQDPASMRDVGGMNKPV
Sequence of Muscarinic M3 (P20309 whole entry): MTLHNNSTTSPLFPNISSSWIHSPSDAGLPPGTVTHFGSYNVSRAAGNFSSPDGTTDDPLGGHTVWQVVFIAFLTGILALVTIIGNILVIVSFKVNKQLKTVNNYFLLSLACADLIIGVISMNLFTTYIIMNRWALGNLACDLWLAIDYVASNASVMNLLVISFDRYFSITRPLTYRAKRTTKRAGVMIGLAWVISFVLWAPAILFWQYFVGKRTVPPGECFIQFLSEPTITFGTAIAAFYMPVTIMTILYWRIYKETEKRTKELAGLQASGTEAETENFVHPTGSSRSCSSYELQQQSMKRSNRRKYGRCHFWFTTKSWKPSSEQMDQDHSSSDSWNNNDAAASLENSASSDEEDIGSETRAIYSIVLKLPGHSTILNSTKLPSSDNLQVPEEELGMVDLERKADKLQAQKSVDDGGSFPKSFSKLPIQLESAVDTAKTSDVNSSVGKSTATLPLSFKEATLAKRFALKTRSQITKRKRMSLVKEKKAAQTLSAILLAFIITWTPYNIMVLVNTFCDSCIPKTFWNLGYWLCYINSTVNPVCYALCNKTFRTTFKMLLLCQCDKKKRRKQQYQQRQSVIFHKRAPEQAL
T9 sequence (P25101 21-427): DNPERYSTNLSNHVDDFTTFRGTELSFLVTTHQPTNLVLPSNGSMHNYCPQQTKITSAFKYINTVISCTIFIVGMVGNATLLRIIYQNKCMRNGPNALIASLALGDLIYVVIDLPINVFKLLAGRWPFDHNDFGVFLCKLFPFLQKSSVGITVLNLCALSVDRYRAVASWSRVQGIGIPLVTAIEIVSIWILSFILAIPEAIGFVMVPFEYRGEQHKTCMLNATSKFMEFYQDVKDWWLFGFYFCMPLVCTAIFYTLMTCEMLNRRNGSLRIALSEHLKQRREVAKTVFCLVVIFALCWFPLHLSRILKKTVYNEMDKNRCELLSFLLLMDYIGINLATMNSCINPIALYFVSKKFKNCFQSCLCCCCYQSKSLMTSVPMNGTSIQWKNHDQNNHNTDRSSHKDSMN
T13 sequence (P28564 whole entry): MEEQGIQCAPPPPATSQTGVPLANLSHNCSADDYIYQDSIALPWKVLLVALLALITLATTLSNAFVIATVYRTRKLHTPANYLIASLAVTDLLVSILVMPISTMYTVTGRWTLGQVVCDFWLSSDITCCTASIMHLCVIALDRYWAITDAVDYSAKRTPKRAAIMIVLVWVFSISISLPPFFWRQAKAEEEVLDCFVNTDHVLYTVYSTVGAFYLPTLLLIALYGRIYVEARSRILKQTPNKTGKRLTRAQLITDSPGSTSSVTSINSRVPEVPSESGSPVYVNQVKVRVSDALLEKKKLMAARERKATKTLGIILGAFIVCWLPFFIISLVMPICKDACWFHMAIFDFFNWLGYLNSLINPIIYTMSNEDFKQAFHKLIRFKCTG
Sequence of Neurokinin NK3 (P29371 whole entry): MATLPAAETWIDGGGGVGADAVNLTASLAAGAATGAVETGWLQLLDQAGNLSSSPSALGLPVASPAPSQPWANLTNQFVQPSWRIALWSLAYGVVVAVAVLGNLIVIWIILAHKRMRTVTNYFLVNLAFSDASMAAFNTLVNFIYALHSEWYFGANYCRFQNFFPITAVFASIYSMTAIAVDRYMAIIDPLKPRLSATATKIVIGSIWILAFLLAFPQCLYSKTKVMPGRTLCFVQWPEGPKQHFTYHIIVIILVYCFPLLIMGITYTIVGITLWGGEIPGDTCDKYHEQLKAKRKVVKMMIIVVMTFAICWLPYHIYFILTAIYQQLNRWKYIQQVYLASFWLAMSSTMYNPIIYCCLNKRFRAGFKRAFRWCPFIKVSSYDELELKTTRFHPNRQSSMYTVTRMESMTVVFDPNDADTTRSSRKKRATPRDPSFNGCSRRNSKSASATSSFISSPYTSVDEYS
T16 sequence (P47898 whole entry): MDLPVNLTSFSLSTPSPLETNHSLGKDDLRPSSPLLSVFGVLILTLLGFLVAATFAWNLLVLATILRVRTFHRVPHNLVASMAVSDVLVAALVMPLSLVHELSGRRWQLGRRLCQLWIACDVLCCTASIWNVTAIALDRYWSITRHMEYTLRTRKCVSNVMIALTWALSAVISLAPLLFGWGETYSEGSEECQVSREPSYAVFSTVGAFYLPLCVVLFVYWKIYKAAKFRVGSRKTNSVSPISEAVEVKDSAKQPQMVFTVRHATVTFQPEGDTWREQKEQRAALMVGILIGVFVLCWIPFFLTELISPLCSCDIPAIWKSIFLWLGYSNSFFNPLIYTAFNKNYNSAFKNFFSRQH

SMILES: CC(=O)[C@@]1(C)CC[C@H]2[C@@H]3CC=C4C[C@@H](OCc5ccccc5)CC[C@]4(C)[C@H]3CC[C@@]21C [3Bn17MeP, 3β-benzyloxy, 17α-methyl-pregn-5-en-20-one]
- inhibition at 10 µM (Adenosine A1): -27%
- inhibition at 10 µM (Adenosine A3): 1%
- % Inhibition (Adrenergic alpha1): 5%
- % Inhibition (Adrenergic beta2; 10 μM): −4%
- inhibition at 10 µM (Angiotensin-II AT2): -5%
- % Inhibition (Bombesin BB): −6%
- % Inhibition (Cannabinoid CB1; 10 μM): 2%
- inhibition at 10 µM [1]: 2%
- % Inhibition (Dopamine D1; 10 μM): −10%
- % Inhibition (Dopamine D4.4; 10 μM): −10%
- inhibition at 10 µM (Endothelin ETA): 1%
- inhibition at 10 µM (Endothelin ETB): -13%
- inhibition at 10 µM (Melanocortin MC4): -10%
- inhibition at 10 µM (Muscarinic M1): -25%
- inhibition at 10 µM (Muscarinic M2): -17%
- inhibition at 10 µM (Muscarinic M3): 16%
- inhibition at 10 µM (Muscarinic M4): 2%
- inhibition at 10 µM (Muscarinic M5): 0%
- inhibition at 10 µM (Neurokinin NK3): 7%
- inhibition at 10 µM (Neuropetide Y N1): -32%
- inhibition at 10 µM (Neurotensin NTS1 (NT1)): -13%
- % Inhibition [2]: −17%
- % Inhibition [3]: −4%
- % Inhibition [4]: 2%
- inhibition at 10 µM (Prostanoid EP2): 19%
- % Inhibition (Purinergic P2Y): −2%
- % Inhibition (Somatostatin sst): −6%
- inhibition at 10 µM (Vasopressin V1a): 0%
- % Inhibition (Serotonin 5-HT1A; 10 μM): 25%
- % Inhibition (Serotonin 5-HT1B; 10 μM): −15%
- % Inhibition (Serotonin 5-HT2B; 10 μM): 16%
- % Inhibition (Serotonin 5-HT2C; 10 μM): 10%
- % Inhibition (Serotonin 5-HT5a; 10 μM): 2%
- % Inhibition (Serotonin 5-HT7; 10 μM): 8%
- inhibition at 10 µM (Transporters Dopamine): -23%
- inhibition at 10 µM [5]: -1%
- inhibition at 10 µM [6]: 1%
- Inhibition % (Cytokines TNF-alpha): 4%
- Inhibition % (GABA BZD (central)): −16%
- Inhibition % (Glutamate PCP): 5%
- Inhibition % (Sigma sigma): 9%
- inhibition at 10 µM [7]: -12%

- inhibition at 10 µM (Adenosine A1): -25%
- inhibition at 10 µM (Adenosine A3): 11%
- % Inhibition (Adrenergic alpha1): 1%
- inhibition at 10 µM (Adrenergic beta2): -5%
- inhibition at 10 µM (Angiotensin-II AT2): -18%
- % Inhibition (Bombesin BB): −18%
- inhibition at 10 µM (Cannabinoid CB1): 10%
- inhibition at 10 µM [1]: -30%
- inhibition at 10 µM (Dopamine D1): -8%
- inhibition at 10 µM (Dopamine D4.4): 20%
- inhibition at 10 µM (Endothelin ETA): -3%
- inhibition at 10 µM (Endothelin ETB): 4%
- inhibition at 10 µM (Melanocortin MC4): -15%
- inhibition at 10 µM (Muscarinic M1; M1, 10 μM, read-out: % Inhibition): -14%
- inhibition at 10 µM (Muscarinic M2; M2, 10 μM, read-out: % Inhibition): -4%
- inhibition at 10 µM (Muscarinic M3; M3, 10 μM, read-out: % Inhibition): 2%
- inhibition at 10 µM (Muscarinic M4; M4, 10 μM, read-out: % Inhibition): -4%
- inhibition at 10 µM (Muscarinic M5; M5, 10 μM, read-out: % Inhibition): 8%
- inhibition at 10 µM (Neurokinin NK3): 11%
- inhibition at 10 µM (Neuropetide Y N1): -11%
- inhibition at 10 µM (Neurotensin NTS1 (NT1)): -19%
- % Inhibition [2]: 38%
- % Inhibition [3]: −5%
- % Inhibition [4]: 2%
- inhibition at 10 µM (Prostanoid EP2): 24%
- % Inhibition (Purinergic P2Y): −3%
- % Inhibition (Somatostatin sst): −8%
- inhibition at 10 µM (Vasopressin V1a): 10%
- inhibition at 10 µM (Serotonin 5-HT1A): 12%
- inhibition at 10 µM (Serotonin 5-HT1B): -28%
- inhibition at 10 µM (Serotonin 5-HT2B): -38%
- inhibition at 10 µM (Serotonin 5-HT2C): -9%
- inhibition at 10 µM (Serotonin 5-HT5a): 11%
- inhibition at 10 µM (Serotonin 5-HT7): 11%
- inhibition at 10 µM (Transporters Dopamine; dopamine transporter, 10 μM, read-out: % Inhibition): -12%
- inhibition at 10 µM ([5]; norepinephrine transporter, 10 μM, read-out: % Inhibition): -12%
- Inhibition % ([6]; BZD (periph), 10 μM): 42%
- inhibition at 10 µM ([6]; BZD (periph), 10 μM, read-out: Inhibition %): > 40%
- Inhibition % (Cytokines TNF-alpha): 4%
- Inhibition % (GABA BZD (central)): > 40%
- Inhibition % (GABA BZD (central); listed as PREG): −43%
- Inhibition % (Glutamate PCP): 5%
- Inhibition % (Sigma sigma): 26%
- inhibition at 10 µM [7]: 4%
SMILES: CC(=O)[C@H]1CC[C@H]2[C@@H]3CC=C4C[C@@H](O)CC[C@]4(C)[C@H]3CC[C@]12C [pregnenolone, reference compound]

Reference: patent US12583884B2, “3beta-(benzyloxy)-17alpha-methyl-pregn-5-en-20-one for use in the treatment of cognitive disorders” (AELIS FARMA, priority 2018, dated 2026)
